“And” between values parts separate entries of the source, which are not always exact repeats. Equal values may be shown once. Read-outs that look alike come from different tables or passages of the source. Marks after values point to notes of the source that are not given here.

From US20020120242A1, “Absorbent articles with hydrophilic compositions containing botanicals” (priority 2000, published 2002) come the findings set out here.

Data set [1] deals with EPIDERM skin culture. The data set is described as follows: MTT viability assay on EPIDERM skin culture after test composition + insult. A general note: Tetrazolium assays rely on reduction of a dye to a coloured formazan, in cell work by metabolically active cells.
Description: (§1) The MTT dye is taken up by the cells. The reduction of the dye as a result of cellular metabolism can be used to measure the cytotoxicity of the test compositions. In order to confirm viability, inserts of the EPIDERM skin culture that have already been subjected to the test compositions and biological insults are removed from their media and are washed consecutively through immersion in three different beakers of PBS. Fresh PBS is used for each test composition or control being evaluated. The PBS is discarded onto paper towel. The EPIDERM skin culture inserts are then patted onto paper towel and placed into the wells of a 24 well plate containing 300 microliters of pre-warmed media. After all of the EPIDERM skin culture inserts are washed, they are transferred to new 24 well plates containing 300 microliters of the MTT reagent. The MTT reagent is thiazolyl blue having the formula 3-[4,5-Dimethylthiazol-2-yl]-2,5-diphenyltetrzoliumbromide. The plates are incubated for 2 hours in a 37° C., 5% CO2 incubator. After incubation, the EPIDERM skin culture inserts are transferred to 24 well plates and are immersed in 2 milliliters of MTT extraction buffer. The extraction buffer extracts the MTT reagent from the cells. The 24 well plates are parafilmed, covered and placed in ZIPLOCK bags to reduce evaporation of the extraction buffer. The covered plates are rocked overnight in the dark. Following overnight rocking, the liquid in the EPIDERM skin culture inserts is decanted back into the wells. The contents of each well are mixed and a 200 microliter aliquot is then removed from each well and transferred to a 96 well plate. The optical density (OD) of the samples is measured at 570 nm using a spectrophotometer. Five hundred seventy nanometers is the optimal wavelength at which to measure the reduced form of MTT reagent. This reading is subtracted from a background reading at 650 nm to improve data quality. Percent viability of each test composition+insult relative to the control+PBS is recorded as the Mean ODtest composition+insult divided by the Mean ODcontrol+PBS; the quotient then multiplied by 100.
In data set [2] the test system is interleukin-1 alpha. The data set is described as follows: EPIDERM skin culture irritation test, fecal protease (trypsin-chymotrypsin) insult, IL-1 alpha release. It is filed as cell-based, human. How it is done: In order to evaluate the efficacy of the compositions of the invention, a human skin culture was selected to model the response of the human epidermis. EPIDERM skin culture is a cornified, air-interfaced human skin culture. EPIDERM skin culture has multiple layers of progressively differentiated keratinocytes resembling human epidermis. EPIDERM EPI-200 skin culture can be purchased from MatTek Corporation of Ashland, Mass. Experiments using EPIDERM skin culture are conducted in six well plates. Typically, five EPIDERM skin culture inserts are added to five of the six wells. Each well contains one milliliter of pre-warmed media that is the same as the EPIDERM skin culture media. The plates are then incubated in a 37° C., 5% CO2 incubator for thirty minutes. After incubation, 15 microliters of test composition or control are applied to the surface of the EPIDERM skin culture after removing any residual media. The well plates, with the test compositions/control applied, are incubated in the 37° C., 5% CO2 incubator for thirty minutes after which the underlying media is removed and replaced with fresh, pre-warmed media. Next, ten microliters of insult solution, either fecal protease or bile acid, are applied to the surface of the EPIDERM skin culture.
The insult solution is prepared by diluting a 10 mg/ml stock solution in phosphate-buffered saline to a working concentration of 250 µg/ml. The base of the stock solution is 50 mM NaOAcetate, pH 5.5 and 0.15 M NaCl stored at −80° C. […] The bile acid insult solution can be prepared by dissolving 65 mg of cholic acid, 62 mg of deoxycholic acid and 31 mg of chenodeoxycholic acid in 10 ml of phosphate-buffered saline. The bile acid insult components can be purchased from Sigma Chemical Co. of St. Louis, Mo. Phosphate-buffered saline, pH 7.4 (hereinafter “PBS”) can be purchased from Life Technologies of Rockville, Md.
For internal studies, infant feces were collected and the amount of total protease and trypsin activities determined for each of the fecal extracts. To prepare the extract, the feces were suspended in water and vigorously vortexed. After vortexing, the samples were held on ice prior to centrifugation at 15,000 times the force of gravity for 20 minutes. The supernatant was filtered through 0.22 micron cellulose acetate filters and stored at −80° C. until use.
After application of the insult solution, the well plates are incubated for six hours in the 37° C., 5% CO2 incubator. At the end of six hours, the well plates are removed from the incubator, the underlying media is removed and stored at −80° C. The response of the EPIDERM skin culture to the test compositions/control and the insult solution is determined by measuring the amount of interleukin-1 alpha (hereinafter “IL-1”). Interleukin-1 alpha can be quantified using an Interleukin-1 alpha Quantikine Kit available from R&D Systems of Minneapolis, Minn. Interleukin-1 alpha measurements are converted to Log10 for each of the treatments and the averages for each treatment are calculated. In order to determine the ability of the test compositions to reduce skin irritation caused by the biological insults, the percent mean reduction of IL-1 is calculated as follows: [formula]
EPIDERM skin culture studies were conducted to measure the reduction in IL-1 response between compositions of the invention and a fecal protease-induced irritation. The studies were conducted using botanicals that are representative of the invention.

In data set [3] the test system is interleukin-1 alpha. Kind of data set: EPIDERM skin culture irritation test, protease and bile acid insult, IL-1 alpha release. It is filed as cell-based, human. The conditions noted are these: 4 mg/ml in water, 30 minutes pretreatment; protease and bile acid insult 6 hours; sample size six. The procedure:
An additional set of EPIDERM skin culture experiments was conducted to predict the effect of extracted botanical actives on the irritation response to a protease and bile acid insult. The method for utilizing the EPIDERM skin culture described above was also used for this set of experiments evaluating response to a protease and bile acid insult. The EPIDERM skin culture was pretreated with 15 l of test composition containing 4 mg/ml of epigallocatecin gallate in water for a period of 30 minutes in a 37° C./5% CO2 incubator. The skin culture wells were then treated with 10 µl of a protease and bile acid insult for 6 hours under the same incubation conditions. Phosphate-buffered saline solution of pH 7.4 was used as a negative control. After 6 hours, the underlying media is removed and stored at -80° C. The amount of IL-1 from the media was quantified using an Interleukin-1 alpha Quantikine Kit available from R&D Systems of Minneapolis, Minn. The protease and bile acid insult was prepared by mixing equal volumes of a bile acid insult with a protease insult. The bile acid insult included 13 mg/ml cholic acid (sodium salt), 12.4 mg/ml deoxycholic acid (sodium salt) and 6.2 mg/ml chenodeoxycholic acid (sodium salt) prepared in pH 7.4 phosphate-buffered saline. […]

In data set [4] the target is T1, porcine pancreatic trypsin (Sus scrofa, UniProt P00761).
T1 construct: purchased Sigma Chemical of St. Louis, Mo; host or cells: pancreas (porcine)
The data set is described as follows: Trypsin inhibition in solution with BAPNA chromogenic substrate. Format: biochemical. As to conditions: for Trypsin Inhibition (IC50): solid form dissolved in PBS. The procedure: More specifically, compositions of the invention were evaluated for their inhibitory effect on porcine pancreatic trypsin in solution. Porcine pancreatic trypsin from Sigma Chemical of St. Louis, Mo. was prepared at a concentration of 1600 ng/ml in 100 mM Tris-HCL pH 8.0-buffer. Twenty-five microliters of the porcine pancreatic trypsin was added to the wells of a NUNC IMMUNO clear 96 well plate. The wells also contained 150 µl of 100 mM Tris-HCL pH 8.0 buffer and 25 µl of a test composition diluted as necessary in PBS. After a fifteen minute incubation at room temperature, the reaction is initiated by adding 50 µl of a 5 mM solution of chromogenic trypsin substrate (N-benzyl-arginine-p-nitroanalide (BAPNA)) to each of the wells. The BAPNA is prepared at 50 mM in neat dimethylsulfoxide and diluted in water to a 5mM working stock solution. In order to measure the progress of the reactions, optical density measurements were taken at 405 nm every 20 seconds (after a two minute delay) for 10 minutes with a THERMOMAX Microplate Reader (Molecular Devices, Sunnyvale, Calif.). […] Below. The IC50 value is based on a dilution of the liquid stock botanical. The actual concentration of the botanical/salt compositions is not known except for those compositions available in solid form. For the solid forms, stock concentrations in PBS can be accurately made up.

The subject of data set [5] is EPIDERM skin culture. As to conditions: human, 4 mg/ml.
Description: as §1
[6] abbreviates: 4 mg/ml in PBS, trypsin-chymotrypsin insult (Table 3).

T1 sequence (P00761 9-231): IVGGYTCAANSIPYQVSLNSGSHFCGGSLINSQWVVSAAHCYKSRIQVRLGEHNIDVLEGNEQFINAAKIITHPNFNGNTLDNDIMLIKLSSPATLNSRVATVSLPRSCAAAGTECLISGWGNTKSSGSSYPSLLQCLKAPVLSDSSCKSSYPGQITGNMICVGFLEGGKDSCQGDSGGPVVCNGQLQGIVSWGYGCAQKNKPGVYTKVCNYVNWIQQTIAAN

In the case of `O=C(O[C@@H]1Cc2c(O)cc(O)cc2O[C@@H]1c1ccc(O)c(O)c1)c1cc(O)c(O)c(O)c1` [Epicatechin gallate], the “Viability (percentage)” value in the data set with EPIDERM skin culture [1] (setting [6]) is on record as 143%. In addition, the “Mean Reduction of Interleukin-1 Alpha (percentage)” value (“Mean Reduction … (percentage)” for short) in the data set with interleukin-1 alpha [2] (setting [6]) is reported as 62% (5)*.
For `Oc1cc(O)c2c(c1)O[C@H](c1ccc(O)c(O)c1)[C@H](O)C2` [Epicatechin], in that order: 111% and 24% (5).
With `O=C(O[C@@H]1Cc2c(O)cc(O)cc2O[C@@H]1c1cc(O)c(O)c(O)c1)c1cc(O)c(O)c(O)c1` [Epigallocatechin gallate], the “Viability (percentage)” value in the data set on EPIDERM skin culture [1] (setting [6]) is 126%; with EPIDERM skin culture [1] (0.4% (w/v) in PBS + protease insult, relative to control + PBS), 103% and 101% and 112%. The “Mean Reduction … (percentage)” value in the data set with interleukin-1 alpha [2] (0.4% (w/v) in PBS, fecal protease insult 6 hours, one value per set of experiments) was 77% and 71% and 50%. For the same molecule, the IL-1 reduction with interleukin-1 alpha [3] is 28%. For the same molecule, the “reduction of trypsin activity in solution (in words)” value in data set [4] (conclusion from Table 5) is “effective at reducing trypsin activity in solution”. The “Trypsin Inhibition (IC50)” value in data set [4] is listed as 0.00002% (w/v).
As to `Oc1cc(O)c2c(c1)O[C@H](c1cc(O)c(O)c(O)c1)[C@H](O)C2` [Epigallocatechin], the “Viability (percentage)” value in the data set with EPIDERM skin culture [5] was 125%. In addition, the “Mean Reduction … (percentage)” value in the data set on interleukin-1 alpha [2] (setting [6]) was 30% (5).
For `[Cl-].[Cl-].[Sr+2]` [Strontium Chloride], the “Mean Reduction … (percentage)” value with interleukin-1 alpha [2] (1% in PBS, fecal protease insult 6 hours, one value per set of experiments) was 0% (10); with interleukin-1 alpha [2] (10% in PBS, fecal protease insult 6 hours, one value per set of experiments), 15% (10). Moreover, in data set [4], the “Trypsin Inhibition (IC50)” value is reported as >0.5% (w/v).
